Legend:
[1] = system: soybean seeds; assay: Germination of soybean seeds on AEC containing agar plates; format: in vivo
Description: (§1) As a first step in the selection, different concentrations of AEC were used to see if it can kill the proliferating soybean somatic embryos as well as tobacco leaves and germinating tobacco and soybean seeds and germinating soybean somatic embryos. The effect of AEC is clearly seen in all these cases with varying concentrations. […] For proliferating soybean somatic embryo concentrations up to 1 mM AEC is needed along with 0.0075% methylated seed oil to kill them. To further confirm that AEC is acting on the above mentioned tissues, the E. coli DHDPS gene was cloned and put into the binary vector p1201 with the pea RBCs transit peptide under the CaMV 35S promoter.
(§2) An AEC selection system for soybean seeds with precise genetic changes and model system seeds (for rapid system validation) were germinated on 2 mM and 5 mM AEC containing agar plates. On the control plates without AEC all the seeds germinated, however only ˜10% of the soybean seeds germinated on 2 mM AEC plates and none on 5 mM plates.
(§3) To determine whether AEC can be developed as a selectable marker for soybeans the effect of different concentrations of AEC was examined on the germination of soybean seeds and matured soybean somatic embryos and on proliferating soybean somatic embryos. The effect of AEC is clearly seen in all these cases with varying concentrations. The effect of AEC was also examined as a herbicide against pigweed, foxtail and tobacco.

[2] = system: tobacco seeds; assay: Germination of tobacco seeds; format: in vivo; settings: germinating tobacco seeds
Description: as §1

[3] = system: model system seeds; assay: Germination of model system seeds on AEC containing agar plates; format: in vivo; settings: 2 mM and 5 mM AEC agar plates
Description: as §2

[4] = system: germinating soybean somatic embryos; assay: Germination of soybean somatic embryos; format: cell-based
Description: as §1
The effect of AEC on soybean somatic embryos were checked at two stages (1) during the germination (2) during proliferation. The AEC effect during germination was very effective with concentrations above 100 μM were enough to prevent the germination completely.
as §3

[5] = system: proliferating soybean somatic embryos; assay: Killing / growth inhibition of proliferating soybean somatic embryos; format: cell-based
Description: as §1
However, selection during proliferation is always a better way as selected clones can be proliferated and the untransformed embryos can be killed in the earlier stages itself. Unfortunately concentrations up to 20 mM were not sufficient to kill most of the proliferating embryos, though some of the embryos turned yellowish and developed brown spots, but many of them continued to proliferate like controls even after two changes of the medium, once every 15 days. To find out if surfactants can help in AEC absorption during proliferation a methylated seed oil based surfactant was used. […] It was determined that a 0.005% concentration is suitable to use with AEC. […] The cultures on plates with 20 mM AEC died in 4 days indicating solid medium selection can be useful.
(§4) Spray studies have been done using major dicot and monocot weeds, pigweed (Amaranthus retroflexus) and giant foxtail (Setaria faberi) in addition to tobacco. These experiments using 7 to 10 day old seedlings show 20 mM AEC is lethal to pigweed, foxtail and tobacco.

[6] = system: pigweed (Amaranthus retroflexus); assay: Herbicide spray study on pigweed; format: in vivo
Description: as §4
(§5) A major dicot and monocot weed of tobacco, pigweed (Amaranthus retroflexus) and giant foxtail (Setaria faberi) was used in addition to a model crop plant, tobacco. […] For larger plants grown in the green house 20 mM lysine and threonine or 40 mM lysine alone are needed for effective weed control. To increase uptake of these compounds, up to 0.2% Silwett (surfactant) was used. Silwett at 0.5% and above kills the plants. Silwett was not found to be a very effective surfactant. Studies with cultured cells and seedlings indicate that 100 μM levels of AEC are effective for selection.

[7] = system: giant foxtail (Setaria faberi); assay: Herbicide spray study on giant foxtail; format: in vivo
Description: as §4, §5

[8] = system: tobacco; assay: Herbicide spray study on tobacco; format: in vivo
Description: as §4, §5

[9] = system: cultured cells and seedlings; assay: Selection studies with cultured cells and seedlings; format: cell-based
Description: as §5

[10] = system: E. coli auxotroph AT998 rescued with modified soybean DHPS gene; assay: Growth of E. coli auxotroph rescued with modified soybean DHPS gene on 2-AEC plates; format: cell-based; settings: minimal media plates with 0.5 mM 2-AEC
Text: To test if the modified soy DHDPS can become insensitive to AEC and whether 18:1 desaturases can function as a 16:1 desaturase, experiments were conduced with E. Coli auxotrophs. A DHDPS auxotroph was obtained from the E. coli genetic center that can be rescued on medium without diaminopimelic acid when transformed with lysine insensitive DHPS and not with the wild type gene. Similarly, the E. coli auxotroph (fabA/fadR mutant) was obtained which can be complimented by C14 and C16 ACP desaturases but not by stearoyl-ACP desaturases. The primers required for cloning were designated and obtained from soybean genes. A suitable E. coli expression vector was obtained to express these genes in the respective auxotrophs.
It was shown in Arabidopsis, and populous deltoidsXpopulus tricho carpa modification of tryptophan53 (W) to Arginine53 (R) made the DHPS enzyme from these two plants insensitive to lysine concentrations up to 1 mM. E. coli auxotroph AT997 was rescued using these modified genes. This tryptophan residue is present in the consensus sequence MSWDEHI (SEQ ID NO: 6) in several plant DHPS genes (Vauterin et al.,2000). […] With our modified soybean DHPS gene we obtained similar results. We also targeted the tryptophan residue present in the consensus sequence MSWDEHI (SEQ ID NO: 6) in the soybean DHPS gene to convert it to arginine.

[11] = target: DHPS enzyme of E. coli (Escherichia coli, UniProt P0A6L2); settings: E. coli DHPS versus plant enzymes; cited from earlier work
Sequence of DHPS enzyme of E. coli (P0A6L2 whole entry): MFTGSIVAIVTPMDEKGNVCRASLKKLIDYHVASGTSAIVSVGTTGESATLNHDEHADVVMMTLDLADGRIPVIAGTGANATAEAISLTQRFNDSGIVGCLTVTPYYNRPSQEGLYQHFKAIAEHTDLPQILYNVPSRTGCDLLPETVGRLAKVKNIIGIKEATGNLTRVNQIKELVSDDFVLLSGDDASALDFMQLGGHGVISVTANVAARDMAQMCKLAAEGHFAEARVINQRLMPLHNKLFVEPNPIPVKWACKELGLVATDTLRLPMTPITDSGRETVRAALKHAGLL

[12] = system: Clones expressing the insensitive plant DHPS enzymes (E. coli auxotroph AT997); settings: clones expressing lysine insensitive plant DHPS; cited from earlier work
[13] = system: larger plants grown in the green house; assay: Weed control on larger plants grown in the green house; format: in vivo
Description: as §5

[14] = target: plant enzymes (DHPS); settings: read-out: IC50 for lysine; cited from earlier work
[15] = target: T1, DHPS enzyme, tryptophan53 (W) to Arginine53 (R) (Arabidopsis thaliana, UniProt Q9LZX6, W116R); settings: W53R DHPS; cited from earlier work
T1 construct: host or cells: E. coli auxotroph AT997 (clones expressing the plant cDNA)
T1 sequence (Q9LZX6 40-365 W116R): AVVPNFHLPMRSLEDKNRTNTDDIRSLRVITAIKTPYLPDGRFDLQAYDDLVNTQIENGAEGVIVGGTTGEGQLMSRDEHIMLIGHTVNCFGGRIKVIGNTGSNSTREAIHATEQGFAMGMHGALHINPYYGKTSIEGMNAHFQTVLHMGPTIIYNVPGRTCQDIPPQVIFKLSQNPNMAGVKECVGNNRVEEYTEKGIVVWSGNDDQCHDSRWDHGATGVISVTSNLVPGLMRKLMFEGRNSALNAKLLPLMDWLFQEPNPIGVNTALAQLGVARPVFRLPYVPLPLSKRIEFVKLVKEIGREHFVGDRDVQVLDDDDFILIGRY

[16] = system: DHPS enzyme, tryptophan53 (W) to Arginine53 (R); settings: W53R DHPS; cited from earlier work

Structure (SMILES): NCCSC[C@H](N)C(=O)O [AEC, S-2-aminoethyl-cysteine]
- soybean seeds germinated ([1]; 2 mM AEC agar plates, all seeds germinated on control plates): ~10%
- effect on germination of soybean seeds ([1]; 2.5 mM AEC): quite effective
- soybean seeds germinated ([1]; 5 mM AEC agar plates): none
- inhibition of seed germination ([1]; qualitative): can inhibit
- AEC concentration required to completely inhibit germination of tobacco seeds [2]: 2.5 mM
- model system seeds germinated [3]: Not a single model system seed germinated
- effect on germination of soybean somatic embryos ([4]; 100 μM AEC): quite effective
- AEC concentration sufficient to completely inhibit germination of soybean somatic embryos ([4]; Example 1): 100 μm
- inhibition of soybean somatic embryos (SSE) germination ([4]; qualitative): can inhibit
- AEC concentration needed to kill proliferating soybean somatic embryos ([5]; along with 0.0075% methylated seed oil): up to 1 mM
- AEC concentration sufficient to kill proliferating soybean somatic embryos ([5]; on 1/5th D20 medium (1/5 MS salts, 1/5 B5 vitamins, 20 mg/L 2,4-D)): 1.5 mM
- time until cultures died ([5]; solid medium plates, 0.2% surfactant, 20 mM AEC): 4 days
- state of proliferating embryo cultures ([5]; solid medium, 0.2% surfactant, 10 mM AEC, controls behaved the same): remained green with growth for two weeks before they died
- AEC concentrations not sufficient to kill most of the proliferating embryos ([5]; without surfactant, two changes of medium, once every 15 days): up to 20 mM
- concentration lethal to pigweed ([6]; 7 to 10 day old seedlings): 20 mM
- concentration that effectively prevented the growth of pig weed ([6]; whole plant level): 20 mM
- concentration lethal to foxtail ([7]; 7 to 10 day old seedlings): 20 mM
- concentration sufficient to kill fox tail ([7]; whole plant level): 20 mM
- concentration lethal to tobacco ([8]; 7 to 10 day old seedlings): 20 mM
- concentration sufficient to kill tobacco ([8]; whole plant level): 20 mM
- AEC levels effective for selection [9]: 100 µM
- growth of rescued auxotroph [10]: grows well
- fold less sensitive to AEC than plant enzymes [11]: 50 fold
- 2-AEC concentration to which clones were resistant [12]: 2.5 mM

Structure (SMILES): NCCCC[C@H](N)C(=O)O [lysine]
- concentration needed for effective weed control [13]: 40 mM
- IC50 [14]: 10 µM
- lysine concentrations to which the modified DHPS enzyme is insensitive [15]: up to 1 mM
- lysine concentrations to which the modified DHPS enzyme is insensitive [16]: up to 1 mM

Source: patent US7525013B2, “Soybean selection system based on AEC-resistance” (United Soybean Board, priority 2003, dated 2009)
